Experimental data taken from patent US7928126B2, “Cyanopyridine derivative and use thereof as medicine” (Mitsubishi Tanabe Pharma Corporation, priority 2005, dated 2011).
Counter-ions that a name gives are not always drawn.

Assays:
[1] = test system: human colon cancer cell line HCT-116; assay: Cancer cell growth inhibition (WST-8), HCT-116; format: cell-based; conditions: HCT-116, 72 h, HCT116, 3 days, read-out: Cell proliferation suppressive activity value IC50
Procedure: (§1) Using RPMI1640 medium (manufactured by SIGMA) containing 10% fetal bovine serum, human prostate cancer cell line PC-3, human pancreatic cancer cell line PK-8, and human breast cancer cell line MDA-MB-453 were cultured at 37° C. under 5% CO2. Using DMEM/F-12 medium (manufactured by SIGMA) containing 10% fetal bovine serum, human colon cancer cell line HCT-116, human colon cancer cell line SW620, human ovarian cancer cell line SKOV-3, human prostate cancer cell line DU-145 and human pancreatic cancer cell line PANC-1 were cultured at 37° C. under 5% CO2. These cells were inoculated to a 96 well plate and cultured for one day. Thereto was added a compound diluted with a medium to a final concentration of 0.00064-20 μM (final DMSO concentration, 0.4%). After further cultivation for 3 days, WST-8 (0.16 mg/mL) was added to the culture medium and the culture medium was cultured for 2 hr. The absorbance at 650 nm was subtracted from the absorbance at 450 nm. The growth inhibitory activity was expressed by the decrease rate of the absorbance of compound addition group relative to the absorbance of compound non-addition group, and IC50 value was determined from the dose-reaction curve plotting the decrease rate of the absorbance, which was obtained by changing the concentration of the compound, and the concentration of the compound.

[2] = test system: human breast cancer cell line MDA-MB-453; assay: Cancer cell growth inhibition (WST-8), MDA-MB-453; format: cell-based; conditions: MDA-MB-453, 72 h, MDAMB-453, 3 days, read-out: Cell proliferation suppressive activity value IC50
Procedure: as §1

aurora 1 kinase = target: T1, aurora 1 kinase (Homo sapiens, UniProt Q96GD4); assay: Aurora 1 kinase assay (32P-ATP, peptide substrate LRRWSLG); format: biochemical; conditions: room temperature 60 min
T1 construct: purchased UPSTATE

[3] = target: T2, Porcine brain tubulin protein (Sus scrofa, UniProt P02550+P02554); assay: Tubulin polymerization assay (turbidity at 405 nm); format: biochemical; conditions: 10 μM compound, maximum polymerization rate, 37° C.; read-out: inhibitory rate (%)
T2 construct: 3.3 mg/ml Porcine brain tubulin protein: Cytoskeleton; purchased Cytoskeleton; host or cells: porcine brain (tissue-derived)
Procedure: A tubulin polymerization reaction mixture (50 μL) (80 mM Pipes pH=6.9, 0.5 mM MgCl2, 1 mM EGTA, 1 mM GTP, 3.3 mg/ml Porcine brain tubulin protein: Cytoskeleton, 10 μM compound) was prepared in a 96 well flat bottom plate under ice-cooling. This was placed in a plate reader (IWAKI microplate reader, EZS-ABS) controlled to a temperature of 37° C., whereby a temperature dependent tubulin polymerization reaction was initiated. Since the turbidity of the reaction mixture increases as the tubulin polymerization proceeds, the absorbance at 405 nm was measured every other minute for 30 min to monitor the polymerization reaction. Of the 30 min measures, the three largest differences per min of turbidity (generally those immediately after start of the reaction) were taken, and the average of the three values was calculated and taken as the maximum polymerization rate. Inhibitory percent (%)=(C−T)/C×100 wherein T is the maximum polymerization rate of the reaction mixture containing the compound, and C is the maximum polymerization rate of the reaction mixture without the compound.

[4] = test system: human colon cancer cell line SW620; assay: Cancer cell growth inhibition (WST-8), SW620; format: cell-based; conditions: SW-620, 72 h, SW620, 3 days, read-out: Cell proliferation suppressive activity value IC50
Procedure: as §1

[5] = test system: human prostate cancer cell line PC-3; assay: Cancer cell growth inhibition (WST-8), PC-3; format: cell-based; conditions: 72 h, PC3, 3 days, read-out: Cell proliferation suppressive activity value IC50
Procedure: as §1

[6] = test system: human pancreatic cancer cell line PK-8; assay: Cancer cell growth inhibition (WST-8), PK-8; format: cell-based; conditions: 72 h, PK8, 3 days, read-out: Cell proliferation suppressive activity value IC50
Procedure: as §1

[7] = test system: human prostate cancer cell line DU-145; assay: Cancer cell growth inhibition (WST-8), DU-145; format: cell-based; conditions: DU-145, 72 h, DU145, 3 days, read-out: Cell proliferation suppressive activity value IC50
Procedure: as §1

[8] = test system: human ovarian cancer cell line SKOV-3; assay: Cancer cell growth inhibition (WST-8), SKOV-3; format: cell-based; conditions: SK-OV-3, 72 h, SKOV3, 3 days, read-out: Cell proliferation suppressive activity value IC50
Procedure: as §1

[9] = test system: human pancreatic cancer cell line PANC-1; assay: Cancer cell growth inhibition (WST-8), PANC-1; format: cell-based; conditions: 72 h, PANC-1, 3 days, read-out: Cell proliferation suppressive activity value IC50
Procedure: as §1

aurora 2 kinase = target: T3, aurora 2 kinase (Homo sapiens, UniProt O14965); assay: Aurora 2 kinase assay (32P-ATP, peptide substrate LRRASLG); format: biochemical; conditions: room temperature 60 min
T3 construct: The amplified gene encoding aurora 2 kinase was introduced into Escherichia coli expression vector pET32a; made in house; host or cells: Escherichia coli BL21R (Novagen), vector pET32a
T3 sequence (O14965 1-403): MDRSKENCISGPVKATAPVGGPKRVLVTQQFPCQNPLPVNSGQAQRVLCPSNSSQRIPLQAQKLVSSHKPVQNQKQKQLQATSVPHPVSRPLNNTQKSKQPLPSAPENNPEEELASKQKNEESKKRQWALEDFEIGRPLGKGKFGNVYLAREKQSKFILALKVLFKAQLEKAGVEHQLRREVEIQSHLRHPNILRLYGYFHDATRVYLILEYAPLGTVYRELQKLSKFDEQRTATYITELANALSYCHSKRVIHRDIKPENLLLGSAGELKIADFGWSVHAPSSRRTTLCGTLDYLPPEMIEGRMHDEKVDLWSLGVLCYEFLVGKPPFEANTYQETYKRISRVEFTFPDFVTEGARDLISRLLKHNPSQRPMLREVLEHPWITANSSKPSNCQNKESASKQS

human cancer cell lines = assay: Cancer cell growth inhibitory effect, whole cell line panel; format: cell-based; conditions: over the panel of cell lines
Procedure: as §1

T2 sequence (P02550 whole entry): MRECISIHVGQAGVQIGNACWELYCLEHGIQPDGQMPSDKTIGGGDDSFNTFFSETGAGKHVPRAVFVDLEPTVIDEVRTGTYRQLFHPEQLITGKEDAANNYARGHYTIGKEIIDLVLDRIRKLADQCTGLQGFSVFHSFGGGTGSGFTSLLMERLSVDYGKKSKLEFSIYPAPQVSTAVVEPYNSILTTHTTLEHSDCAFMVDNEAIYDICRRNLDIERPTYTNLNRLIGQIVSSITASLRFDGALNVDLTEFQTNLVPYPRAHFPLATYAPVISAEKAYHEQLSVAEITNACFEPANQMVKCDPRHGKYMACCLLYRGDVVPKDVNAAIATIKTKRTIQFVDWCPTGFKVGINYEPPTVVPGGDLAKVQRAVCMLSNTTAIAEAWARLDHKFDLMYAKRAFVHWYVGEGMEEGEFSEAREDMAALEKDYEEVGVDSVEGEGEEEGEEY
T2 sequence (P02554 whole entry): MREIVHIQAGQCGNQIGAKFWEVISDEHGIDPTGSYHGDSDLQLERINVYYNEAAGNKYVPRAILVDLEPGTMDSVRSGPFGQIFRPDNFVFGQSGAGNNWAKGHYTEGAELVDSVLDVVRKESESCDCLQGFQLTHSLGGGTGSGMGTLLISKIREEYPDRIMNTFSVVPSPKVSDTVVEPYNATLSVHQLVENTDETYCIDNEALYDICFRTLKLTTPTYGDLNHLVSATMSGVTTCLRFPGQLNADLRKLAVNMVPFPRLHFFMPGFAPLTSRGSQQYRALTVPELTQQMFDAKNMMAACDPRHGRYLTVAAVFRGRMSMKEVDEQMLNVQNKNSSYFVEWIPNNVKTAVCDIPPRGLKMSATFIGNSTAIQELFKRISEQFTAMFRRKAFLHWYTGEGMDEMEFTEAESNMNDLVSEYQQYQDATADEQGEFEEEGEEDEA
T1 sequence (Q96GD4 whole entry): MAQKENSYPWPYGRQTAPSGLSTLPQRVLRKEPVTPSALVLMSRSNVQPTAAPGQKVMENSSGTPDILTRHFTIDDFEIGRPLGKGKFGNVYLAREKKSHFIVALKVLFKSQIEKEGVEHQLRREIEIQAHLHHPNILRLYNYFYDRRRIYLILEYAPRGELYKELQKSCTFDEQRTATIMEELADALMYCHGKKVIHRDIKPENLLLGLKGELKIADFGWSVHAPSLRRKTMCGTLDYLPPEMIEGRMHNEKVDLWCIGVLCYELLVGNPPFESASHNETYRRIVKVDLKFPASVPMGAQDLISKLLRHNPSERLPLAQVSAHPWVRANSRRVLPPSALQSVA

| IC50 [1] | IC50 [2] | Ki (aurora 1 kinase) | inhibition at 10 µM [3] | IC50 [4] | IC50 [5] | IC50 [6] | IC50 [7] | IC50 [8] | IC50 [9] | Ki (aurora 2 kinase) | SMILES | cancer cell growth inhibitory action (in words) (human cancer cell lines) |
| --- | --- | --- | --- | --- | --- | --- | --- | --- | --- | --- | --- | --- |
| 11 nM | 7 nM | ≤ 100 nM | 69% | 8 nM | 17 nM | 18 nM | 7 nM | 10 nM | 1290 nM | 3 nM | Cc1cc(Nc2cc(C)c(C#N)c(NCCOc3ccccc3)n2)n[nH]1 [Example 2, 2-(2-phenoxyethylamino)-6-(5-methyl-1H-pyrazol-3-ylamino)-4-methylnicotinonitrile] | – |
| 17 nM | < 6.4 nM | – | 86% | < 6.4 nM | < 6.4 nM | 83 nM | 647 nM | < 6.4 nM | 1180 nM | 1 nM | Cc1cc(Nc2cc(C)c(C#N)c(NCCOc3cccc(F)c3)n2)n[nH]1 [Example 9, 2-(2-(3-fluorophenoxy)ethylamino)-6-(5-methyl-1H-pyrazol-3-ylamino)-4-methylnicotinonitrile hydrochloride] | – |
| 2 nM | 3 nM | ≤ 100 nM | 44% | < 6.4 nM | 7 nM | 4 nM | 7 nM | 1 nM | 9 nM | 2 nM | Cc1cc(Nc2cc(C)c(C#N)c(NCCOc3cccnc3)n2)n[nH]1 [Example 12, 2-(2-(pyridin-3-yloxy)ethylamino)-6-(5-methyl-1H-pyrazol-3-ylamino)-4-methylnicotinonitrile dihydrochloride] | good cancer cell growth inhibitory action over a broad range |
| 7 nM | 12 nM | ≤ 100 nM | 63% | 5 nM | 4 nM | 8 nM | 13 nM | 3 nM | 14 nM | 2 nM | Cc1ccc(OCCNc2nc(Nc3cc(C)[nH]n3)cc(C)c2C#N)cn1 [Example 21, 2-(2-(6-methylpyridin-3-yloxy)ethylamino)-6-(5-methyl-1H-pyrazol-3-ylamino)-4-methylnicotinonitrile] | good cancer cell growth inhibitory action over a broad range |
| 4 nM | < 6.4 nM | – | 79% | < 6.4 nM | 15 nM | 7 nM | 8 nM | 4 nM | < 6.4 nM | 4 nM | Cc1cc(Nc2cc(C)c(C#N)c(NCCOc3cccnc3C)n2)n[nH]1 [Example 22, 2-(2-(2-methylpyridin-3-yloxy)ethylamino)-6-(5-methyl-1H-pyrazol-3-ylamino)-4-methylnicotinonitrile dihydrochloride] | good cancer cell growth inhibitory action over a broad range |
| 3 nM | 4 nM | ≤ 100 nM | 69% | < 6.4 nM | < 6.4 nM | < 6.4 nM | 19 nM | < 6.4 nM | 6180 nM | 4 nM | Cc1cc(Nc2ccc(C#N)c(NCCOc3cccnc3C)n2)n[nH]1 [Example 28, 2-(2-(2-methylpyridin-3-yloxy)ethylamino)-6-(5-methyl-1H-pyrazol-3-ylamino)nicotinonitrile dihydrochloride] | – |

| SMILES | IC50 [1] | IC50 [2] | Ki (aurora 1 kinase) | inhibition at 10 µM [3] | IC50 [4] | IC50 [5] | IC50 [6] | IC50 [7] | IC50 [8] | IC50 [9] | Ki (aurora 2 kinase) | cancer cell growth inhibitory action (in words) (human cancer cell lines) |
| --- | --- | --- | --- | --- | --- | --- | --- | --- | --- | --- | --- | --- |
| Cc1ccc(OCCNc2nc(Nc3cc(C)[nH]n3)cc(C)c2C#N)c(C)n1 [Example 23, 2-(2-(2,6-dimethylpyridin-3-yloxy)ethylamino)-6-(5-methyl-1H-pyrazol-3-ylamino)-4-methylnicotinonitrile dihydrochloride] | 37 nM | 40 nM | – | 77% | 40 nM | 21 nM | 13 nM | 50 nM | 8 nM | 3 nM | 10 nM | good cancer cell growth inhibitory action over a broad range |
